Measured values from PubChem BioAssay AID256 (DTP/NCI, 2004).
Where “and” joins values, the source holds several entries; their conditions need not be identical. Equal entries are not always repeated. Inconclusive results and toxic doses are left out. Rule for the calls: active = survival T/C of 150% or more; inactive = T/C below 125% in these data.

System: CD2F1 mice, L1210 leukemia ip, survival T/C
Assay: NCI In Vivo Anticancer Drug Screen. Data for tumor model L1210 Leukemia (intraperitoneal) in CD2F1 (CDF1) mice
Settings: endpoint: mean survival time, higher = longer survival
Method in brief: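 Antitumor effect is scored in animals hosting a serially transplanted tumor. Values compare compound-dosed animals against vehicle-only controls as a simple quotient.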

[1] = dose: 75.0 mg/kg/injection, schedule: Q01DX001 (ip), vehicle: saline
[2] = dose: 150.0 mg/kg/injection, schedule: Q01DX001 (ip), vehicle: saline
[3] = dose: 25.0 mg/kg/injection, schedule: Q04DX003 (ip), vehicle: saline with Tween-80
[4] = dose: 50.0 mg/kg/injection, schedule: Q04DX003 (ip), vehicle: saline with Tween-80
[5] = dose: 50.0 mg/kg/injection, schedule: Q01DX009 (ip), vehicle: saline with Tween-80
[6] = dose: 100.0 mg/kg/injection, schedule: Q01DX009 (ip), vehicle: saline with Tween-80
[7] = dose: 100.0 mg/kg/injection, schedule: Q04DX003 (ip), vehicle: saline with Tween-80
[8] = dose: 200.0 mg/kg/injection, schedule: Q01DX009 (ip), vehicle: saline with Tween-80
[9] = dose: 200.0 mg/kg/injection, schedule: Q04DX003 (ip), vehicle: saline with Tween-80
[10] = dose: 100.0 mg/kg/injection, schedule: Q04DX002 (ip), vehicle: saline with Tween-80
[11] = dose: 200.0 mg/kg/injection, schedule: Q04DX002 (ip), vehicle: saline with Tween-80
[12] = dose: 400.0 mg/kg/injection, schedule: Q04DX002 (ip), vehicle: saline with Tween-80
[13] = dose: 25.0 mg/kg/injection, schedule: Q01DX009 (ip), vehicle: saline with Tween-80
[14] = dose: 400.0 mg/kg/injection, schedule: Q04DX003 (ip), vehicle: saline with Tween-80
[15] = dose: 400.0 mg/kg/injection, schedule: Q01DX009 (ip), vehicle: saline with Tween-80
[16] = dose: 100.0 mg/kg/injection, schedule: Q04DX003 (ip), vehicle: saline

Measured: T/C

O=S1(=O)CCCCC1
inactive: dose: 37.5 mg/kg/injection, schedule: Q01DX009 (ip), vehicle: saline 98 % of control | [1] 104 % of control | dose: 75.0 mg/kg/injection, schedule: Q01DX009 (ip), vehicle: saline 98 % of control | dose: 75.0 mg/kg/injection, schedule: Q04DX003 (ip), vehicle: saline 93 % of control | [2] 96 % of control | dose: 150.0 mg/kg/injection, schedule: Q01DX009 (ip), vehicle: saline 98 % of control | dose: 150.0 mg/kg/injection, schedule: Q04DX003 (ip), vehicle: saline 96 % of control | dose: 300.0 mg/kg/injection, schedule: Q01DX001 (ip), vehicle: saline 95 % of control | dose: 300.0 mg/kg/injection, schedule: Q04DX003 (ip), vehicle: saline 100 % of control

O=C1C(Cl)=C(SCc2ccccc2)C(=O)c2ccccc21
inactive: [3] 91 % of control | [4] 91 % of control

CCN(CC)CC(C)(C)CO
inactive: [5] 104 % of control | [6] 95 % of control | [7] 92 % of control | [8] 98 % of control | [9] 97 % of control

O=C1NC(=O)c2ccc3c4c(ccc1c24)C(=O)NC3=O
inactive: dose: 15.5 mg/kg/injection, schedule: Q01DX009 (ip), vehicle: saline with Tween-80 100 % of control | dose: 31.0 mg/kg/injection, schedule: Q01DX009 (ip), vehicle: saline with Tween-80 94 % of control | dose: 62.0 mg/kg/injection, schedule: Q01DX009 (ip), vehicle: saline with Tween-80 100 % of control | dose: 62.5 mg/kg/injection, schedule: Q01DX009 (ip), vehicle: saline with Tween-80 98 % of control

Cn1c(=O)c2c(nc(NCCOC(=S)S)n2C)n(C)c1=O
inactive: dose: 12.5 mg/kg/injection, schedule: Q01DX005 (ip), vehicle: distilled water + Tween-80 94 % of control | dose: 25.0 mg/kg/injection, schedule: Q01DX005 (ip), vehicle: distilled water + Tween-80 91 % of control | dose: 50.0 mg/kg/injection, schedule: Q01DX005 (ip), vehicle: distilled water + Tween-80 100 % of control

CC1NC(=O)OC12CCCCC2 (stereo not drawn)
inactive: [6] 101 % of control | [8] 107 % of control

CCc1ccc(C(=O)CCC(=O)O)cc1
inactive: [10] 98 % of control | [11] 95 % of control | [12] 102 % of control

Clc1cc(Cl)c(CBr)cc1CBr
inactive: dose: 12.5 mg/kg/injection, schedule: Q01DX009 (ip), vehicle: saline with Tween-80 91 % of control | [9] 90 % of control

CN(N)c1cccc2c1CCCC2
inactive: [13] 106 % of control | [3] 97 % of control | [5] 103 % of control | [4] 102 % of control | [6] 105 % of control | [7] 93 % of control and 102 % of control

O=C1c2ccccc2S(=O)(=O)c2cccc(S(=O)(=O)c3ccccc3)c21
inactive: [7] 98 % of control | [9] 95 % of control | [14] 90 % of control

CCCCNC(=O)Oc1ccc(OCc2ccccc2)cc1
inactive: [6] 96 % of control | [7] 94 % of control | [8] 89 % of control | [9] 91 % of control | [15] 92 % of control

COc1cc2ccc3c4cc(OC)c(OC)cc4c[n+](C)c3c2cc1O
inactive: dose: 75.0 mg/kg/injection, schedule: Q04DX003 (ip), vehicle: Klucel (hydroxypropylcellulose) (HPC) 113 % of control | dose: 150.0 mg/kg/injection, schedule: Q04DX003 (ip), vehicle: Klucel (hydroxypropylcellulose) (HPC) 113 % of control | dose: 300.0 mg/kg/injection, schedule: Q04DX003 (ip), vehicle: Klucel (hydroxypropylcellulose) (HPC) 119 % of control

Cc1ccn2c(=O)c(CCBr)c(C)nc2c1
inactive: [1] 96 % of control

CC1C([N+]2(C)CCCCC2)CS1(=O)=O (stereo not drawn)
inactive: dose: 100.0 mg/kg/injection, schedule: Q04DX002 (ip), vehicle: saline 103 % of control | dose: 200.0 mg/kg/injection, schedule: Q04DX002 (ip), vehicle: saline 100 % of control | dose: 400.0 mg/kg/injection, schedule: Q04DX002 (ip), vehicle: saline 95 % of control

C=CC1CC=CCC1 (stereo not drawn)
inactive: [6] 103 % of control | [8] 106 % of control

CC(C)C(=O)OCC(C)(C)COC(=O)C(C)C
inactive: [16] 87 % of control | dose: 200.0 mg/kg/injection, schedule: Q04DX003 (ip), vehicle: saline 87 % of control | dose: 400.0 mg/kg/injection, schedule: Q04DX003 (ip), vehicle: saline 94 % of control

O=c1[nH]cnc2c1CN(c1ccccc1)C2
inactive: [1] 113 % of control | [2] 104 % of control

C=CC[P+](c1ccccc1)(c1ccccc1)c1ccccc1
inactive: dose: 6.25 mg/kg/injection, schedule: Q01DX001 (ip), vehicle: saline 101 % of control | dose: 12.5 mg/kg/injection, schedule: Q01DX001 (ip), vehicle: saline 100 % of control and 112 % of control | dose: 25.0 mg/kg/injection, schedule: Q01DX001 (ip), vehicle: saline 96 % of control and 103 % of control

[Cl][Pt+2][Cl].[NH-]C1CCCC2CCC[N-]C12 (stereo not drawn)
inactive: [10] 105 % of control | [11] 121 % of control | [12] 110 % of control

O=C(CCc1ccc(O)cc1)N/N=C/c1ccc2c(c1)OCO2
inactive: [7] 90 % of control | [9] 90 % of control | [14] 88 % of control

CC1=C(c2ccccc2)C(c2ccccc2)c2ccccc21 (stereo not drawn)
inactive: dose: 100.0 mg/kg/injection, schedule: Q01DX001 (ip), vehicle: saline with Tween-80 94 % of control | dose: 200.0 mg/kg/injection, schedule: Q01DX001 (ip), vehicle: saline with Tween-80 93 % of control | dose: 400.0 mg/kg/injection, schedule: Q01DX001 (ip), vehicle: saline with Tween-80 92 % of control

O=S(=O)(C1CCCCC1)N1N=NC2CCCCC21 (stereo not drawn)
inactive: [7] 100 % of control | [9] 102 % of control

C=C1C(=O)O[C@@H]2C[C@@H](C)[C@@H]3C=CC(=O)[C@@]3(C)[C@@H](O)[C@H]12
inactive: dose: 8.0 mg/kg/injection, schedule: Q04DX003 (ip), vehicle: saline with Tween-80 117 % of control

CCOC(=O)/C(C#N)=C\c1cc([N+](=O)[O-])ccc1Cl
inactive: [7] 89 % of control | [9] 108 % of control | [14] 108 % of control

CCOC(=O)C(O)c1ccccc1 (stereo not drawn)
inactive: [6] 101 % of control | [8] 96 % of control | [15] 93 % of control

CCCCOc1ccc(NC(=O)CCl)cc1
inactive: [13] 96 % of control | dose: 25.0 mg/kg/injection, schedule: Q04DX003 (ip), vehicle: saline 95 % of control | [5] 96 % of control | dose: 50.0 mg/kg/injection, schedule: Q04DX003 (ip), vehicle: saline 101 % of control | [16] 94 % of control

O=C1C2C3C=CC(C3)C2C(=O)N1O (stereo not drawn)
inactive: dose: 50.0 mg/kg/injection, schedule: Q01DX001 (ip), vehicle: carboxymethylcellulose (CMC) 106 % of control | dose: 100.0 mg/kg/injection, schedule: Q01DX001 (ip), vehicle: carboxymethylcellulose (CMC) 100 % of control | dose: 200.0 mg/kg/injection, schedule: Q01DX001 (ip), vehicle: carboxymethylcellulose (CMC) 112 % of control | dose: 400.0 mg/kg/injection, schedule: Q01DX001 (ip), vehicle: carboxymethylcellulose (CMC) 96 % of control

COC1=CCC(OC)=C(C)C1
inactive: [7] 93 % of control

CC(CN1c2ccccc2Sc2ccccc21)N(C)CCO (stereo not drawn)
inactive: dose: 50.0 mg/kg/injection, schedule: Q01DX001 (ip), vehicle: saline 101 % of control | dose: 100.0 mg/kg/injection, schedule: Q01DX001 (ip), vehicle: saline 101 % of control | dose: 200.0 mg/kg/injection, schedule: Q01DX001 (ip), vehicle: saline 97 % of control | dose: 400.0 mg/kg/injection, schedule: Q01DX001 (ip), vehicle: saline 97 % of control

CC1SCCCS1
inactive: dose: 12.5 mg/kg/injection, schedule: Q04DX003 (ip), vehicle: other 106 % of control | dose: 25.0 mg/kg/injection, schedule: Q04DX003 (ip), vehicle: other 104 % of control | dose: 50.0 mg/kg/injection, schedule: Q04DX003 (ip), vehicle: other 102 % of control | dose: 100.0 mg/kg/injection, schedule: Q04DX003 (ip), vehicle: other 102 % of control | dose: 200.0 mg/kg/injection, schedule: Q04DX003 (ip), vehicle: other 97 % of control

CN(C)c1ccc(C(O)c2ccc(N(C)C)cc2)cc1
inactive: [7] 90 % of control | [9] 91 % of control | [14] 94 % of control

COc1cc2nc(C(O)C(O)c3nc4cc(OC)c(OC)cc4[nH]3)[nH]c2cc1OC (stereo not drawn)
inactive: [7] 101 % of control | [9] 98 % of control
